≈ marks a conversion by molar mass, not a printed value.
Experiments:
Experiment in all cases: Bacterial growth minimal inhibitory concentration (broth microdilution, CLSI M7-A7)
[1] = tested on: E. coli ATCC25922; format: cell-based, Escherichia coli; conditions: cation-adjusted Mueller-Hinton Broth, microdilution, quinolone-sensitive strain; for MIC: Escherichia coli, ATCC25922, read-out: MIC for E. coli ATCC25922
Summary of the method: (§1)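 Broth microdilution in cation-adjusted Mueller-Hinton Broth per CLSI M7-A7; MICs reported in mg/L. K. pneumoniae A-651 and A. baumannii T6474 are multiply resistant, quinolone-resistant strains; E. coli ATCC25922 and P. aeruginosa ATCC27853 are quinolone-sensitive.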

[2] = tested on: P. aeruginosa ATCC27853; format: cell-based, Pseudomonas aeruginosa; conditions: cation-adjusted Mueller-Hinton Broth, microdilution, quinolone-sensitive strain; for MIC: Pseudomonas aeruginosa, ATCC27853, read-out: MIC for P. aeruginosa ATCC27853
Summary of the method: as §1

[3] = tested on: K. pneumoniae A-651; format: cell-based, Klebsiella pneumoniae; conditions: cation-adjusted Mueller-Hinton Broth, microdilution, multiply-resistant (quinolone-resistant) strain; for MIC: Klebsiella pneumoniae, A651, read-out: MIC for K. Pneumoniae A-651
Summary of the method: as §1

[4] = tested on: Acinetobacter baumannii T6474; format: cell-based; conditions: cation-adjusted Mueller-Hinton Broth, microdilution, multiply-resistant (quinolone-resistant) strain; for MIC: Acinetobacter baumannii, T6474, read-out: MIC for A. Baumannii T6474
Summary of the method: as §1

MIC [1]	MIC [2]	MIC [3]	MIC [4]	MIC for E. coli ATCC25922 [1]	MIC for P. aeruginosa ATCC27853 [2]	MIC for K. Pneumoniae A-651 [3]	MIC for A. Baumannii T6474 [4]	Structure (SMILES)
0.125 µg/mL (≈ 0.302 µM)	0.5 µg/mL (≈ 1.21 µM)	0.125 µg/mL (≈ 0.302 µM)	> 32 µg/mL	–	–	–	–	C[C@@](CCn1cc2cc(C#CC#CC3(N)CC3)ccc2n1)(C(=O)NO)S(C)(=O)=O [Example 65, (R)-4-(5-((1-aminocyclopropyl)buta-1,3-diyn-1-yl)-2H-indazol-2-yl)-N-hydroxy-2-methyl-2-(methylsulfonyl)butanamide]
0.25 µg/mL (≈ 0.497 µM)	1 µg/mL (≈ 1.99 µM)	1 µg/mL (≈ 1.99 µM)	8 µg/mL (≈ 15.9 µM)	–	–	–	–	C[C@@](CCn1cc2cc(C#Cc3ccc(NC(=O)CO)c(F)c3)ccc2n1)(C(=O)NO)S(C)(=O)=O [Example 45, (R)-4-(5-((3-fluoro-4-(2-hydroxyacetamido)phenyl)ethynyl)-2H-indazol-2-yl)-N-hydroxy-2-methyl-2-(methylsulfonyl)butanamide]
4 µg/mL (≈ 9.67 µM)	8 µg/mL (≈ 19.3 µM)	8 µg/mL (≈ 19.3 µM)	8 µg/mL (≈ 19.3 µM)	–	–	–	–	C[C@@](CCn1cc2cc(C#Cc3cncnc3)ccc2n1)(C(=O)NO)S(C)(=O)=O [Example 59, (R)—N-hydroxy-2-methyl-2-(methylsulfonyl)-4-(5-(pyrimidin-5-ylethynyl)-2H-indazol-2-yl)butanamide]
2 µg/mL (≈ 4.36 µM)	1 µg/mL (≈ 2.18 µM)	4 µg/mL (≈ 8.72 µM)	> 8 µg/mL	–	–	–	–	C[C@@](CCn1cc2cc(C#CC#C[C@@H]3CC[C@H](N)CO3)ccc2n1)(C(=O)NO)S(C)(=O)=O (relative stereo) [Example 61, (R)-4-(5-(((2S*,5S*)-5-aminotetrahydro-2H-pyran-2-yl)buta-1,3-diyn-1-yl)-2H-indazol-2-yl)-N-hydroxy-2-methyl-2-(methylsulfonyl)butanamide]
0.125 µg/mL (≈ 0.274 µM)	0.5 µg/mL (≈ 1.1 µM)	0.25 µg/mL (≈ 0.549 µM)	8 µg/mL (≈ 17.6 µM)	–	–	–	–	C[C@@](CCn1cc2cc(C#CC#CC34CC(CO)(C3)C4)ccc2n1)(C(=O)NO)S(C)(=O)=O [Example 57, (R)—N-hydroxy-4-(5-((3-(hydroxymethyl)bicyclo[1.1.1]pentan-1-yl)buta-1,3-diyn-1-yl)-2H-indazol-2-yl)-2-methyl-2-(methylsulfonyl)butanamide]
0.5 µg/mL (≈ 1.16 µM)	1 µg/mL (≈ 2.32 µM)	0.5 µg/mL (≈ 1.16 µM)	> 32 µg/mL	–	–	–	–	C[C@@](CCn1cc2cc(C#CC#CC3(O)COC3)ccc2n1)(C(=O)NO)S(C)(=O)=O [Example 28, (R)—N-hydroxy-4-(5-((3-hydroxyoxetan-3-yl)buta-1,3-diyn-1-yl)-2H-indazol-2-yl)-2-methyl-2-(methylsulfonyl)butanamide]
–	–	–	–	0.125 µg/mL	0.25 µg/mL	0.5 µg/mL	4 µg/mL	C[C@@](CCn1cc2cc(C#CC#C[C@@H]3C[C@@H](O)[C@@H](O)C3)ccc2n1)(C(=O)NO)S(C)(=O)=O [Example 64, (R)-4-(5-(((1S,3R,4S)-3,4-dihydroxycyclopentyl)buta-1,3-diyn-1-yl)-2H-indazol-2-yl)-N-hydroxy-2-methyl-2-(methylsulfonyl)butanamide]
≤ 0.063 µg/mL	0.5 µg/mL (≈ 1.12 µM)	≤ 0.063 µg/mL	4 µg/mL (≈ 8.94 µM)	–	–	–	–	C[C@@](CCn1cc2c(F)c(C#CC#C[C@H]3C[C@@H]3CO)ccc2n1)(C(=O)NO)S(C)(=O)=O [Example 54, (R)-4-(4-fluoro-5-(((1S,2S)-2-(hydroxymethyl)cyclopropyl)buta-1,3-diyn-1-yl)-2H-indazol-2-yl)-N-hydroxy-2-methyl-2-(methylsulfonyl)butanamide]
0.063 µg/mL (≈ 0.14 µM)	2 µg/mL (≈ 4.43 µM)	0.063 µg/mL (≈ 0.14 µM)	0.25 µg/mL (≈ 0.554 µM)	–	–	–	–	CSc1ccc(-c2ccc3nn(CC[C@](C)(C(=O)NO)S(C)(=O)=O)cc3c2)c(F)c1 [Example 9, (R)-4-[5-(2-fluoro-4-methylsulfanyl-phenyl)-indazol-2-yl]-N-hydroxy-2-methylsulfonyl-2-methyl-butanamide]
0.5 µg/mL	2 µg/mL	0.5 µg/mL	2 µg/mL	–	–	–	–	C[C@@](CCn1cc2cc(C#Cc3ccc(C4(N)COC4)cc3)ccc2n1)(C(=O)NO)S(C)(=O)=O.Cc1ccc(S(=O)(=O)O)cc1 [Example 10, (R)-4-{5-[4-(3-amino-oxetan-3-yl)-phenylethynyl]-indazol-2-yl}-N-hydroxy-2-methylsulfonyl-2-methyl-butanamide toluene-4-sulfonate]
0.063 µg/mL (≈ 0.139 µM)	2 µg/mL (≈ 4.4 µM)	0.125 µg/mL (≈ 0.275 µM)	1 µg/mL (≈ 2.2 µM)	–	–	–	–	C[C@@](CCn1cc2cc(-c3ccc(-n4nccn4)cc3)ccc2n1)(C(=O)NO)S(C)(=O)=O [Example 12, (R)—N-hydroxy-2-methylsulfonyl-2-methyl-4-[5-(4-[1,2,3]triazol-2-yl-phenyl)-indazol-2-yl]-butanamide]
1 µg/mL (≈ 2.01 µM)	2 µg/mL (≈ 4.02 µM)	1 µg/mL (≈ 2.01 µM)	2 µg/mL (≈ 4.02 µM)	–	–	–	–	C[C@@](CCn1cc2cc(C#Cc3ccc(C4(CO)COC4)cc3)ccc2n1)(C(=O)NO)S(C)(=O)=O [Example 43, (R)—N-hydroxy-4-(5-((4-(3-(hydroxymethyl)oxetan-3-yl)phenyl)ethynyl)-2H-indazol-2-yl)-2-methyl-2-(methylsulfonyl)butanamide]
0.125 µg/mL (≈ 0.272 µM)	1 µg/mL (≈ 2.18 µM)	0.125 µg/mL (≈ 0.272 µM)	0.25 µg/mL (≈ 0.544 µM)	–	–	–	–	C[C@@](CCn1cc2cc(C#Cc3ccc(CO)cc3F)ccc2n1)(C(=O)NO)S(C)(=O)=O [Example 39, (R)-4-[5-(2-fluoro-4-hydroxymethyl-phenylethynyl)-indazol-2-yl]-N-hydroxy-2-methylsulfonyl-2-methyl-butanamide]
8 µg/mL (≈ 18.1 µM)	2 µg/mL (≈ 4.52 µM)	32 µg/mL (≈ 72.3 µM)	> 32 µg/mL	–	–	–	–	C[C@@](CCn1cc2cc(C#CC#CC3CCNCC3)ccc2n1)(C(=O)NO)S(C)(=O)=O [Example 76, (R)—N-hydroxy-2-methyl-2-(methylsulfonyl)-4-(5-(piperidin-4-ylbuta-1,3-diyn-1-yl)-2H-indazol-2-yl)butanamide]
1 µg/mL (≈ 2.22 µM)	2 µg/mL (≈ 4.45 µM)	1 µg/mL (≈ 2.22 µM)	> 32 µg/mL	–	–	–	–	C[C@@](CCn1cc2cc(C#CC#CC3(O)COC3)c(F)cc2n1)(C(=O)NO)S(C)(=O)=O [Example 31, (R)-4-{6-fluoro-5-[4-(3-hydroxy-oxetan-3-yl)-buta-1,3-diynyl]-indazol-2-yl}-N-hydroxy-2-methylsulfonyl-2-methyl-butanamide]
0.063 µg/mL (≈ 0.139 µM)	4 µg/mL (≈ 8.82 µM)	0.063 µg/mL (≈ 0.139 µM)	2 µg/mL (≈ 4.41 µM)	–	–	–	–	COc1ccc(-c2cc3cn(CC[C@](C)(C(=O)NO)S(C)(=O)=O)nc3cc2F)c(F)c1 [Example 5, (R)-4-[6-fluoro-5-(2-fluoro-4-methoxy-phenyl)-indazol-2-yl]-N-hydroxy-2-methylsulfonyl-2-methyl-butanamide]
0.25 µg/mL (≈ 0.544 µM)	0.25 µg/mL (≈ 0.544 µM)	0.5 µg/mL (≈ 1.09 µM)	8 µg/mL (≈ 17.4 µM)	–	–	–	–	C[C@@](CCn1cc2cc(C#CC#C[C@@H]3C[C@H]3[C@H](O)CO)ccc2n1)(C(=O)NO)S(C)(=O)=O [Example 71, (R)-4-(5-(((1R,2R)-2-((S)-1,2-dihydroxyethyl)cyclopropyl)buta-1,3-diyn-1-yl)-2H-indazol-2-yl)-N-hydroxy-2-methyl-2-(methylsulfonyl)butanamide]
0.125 µg/mL (≈ 0.279 µM)	0.5 µg/mL (≈ 1.12 µM)	0.125 µg/mL (≈ 0.279 µM)	4 µg/mL (≈ 8.94 µM)	–	–	–	–	C[C@@](CCn1cc2c(F)c(C#CC#C[C@H]3C[C@@H]3CO)ccc2n1)(C(=O)NO)S(C)(=O)=O (relative stereo) [Example 18, (R)-4-{4-fluoro-5-[4-((1S*,2S*)-2-hydroxymethyl-cyclopropyl)-buta-1,3-diynyl]-indazol-2-yl}-N-hydroxy-2-methylsulfonyl-2-methyl-butanamide]
4 µg/mL (≈ 10.5 µM)	8 µg/mL (≈ 21.1 µM)	8 µg/mL (≈ 21.1 µM)	32 µg/mL (≈ 84.3 µM)	–	–	–	–	CC#CCOc1ccc2nn(CCC(C)(C(=O)NO)S(C)(=O)=O)cc2c1 (racemic) [RE4, (RS)-4-(5-but-2-ynyloxy-indazol-2-yl)-N-hydroxy-2-methylsulfonyl-2-methyl-butanamide]
–	–	–	–	1 µg/mL	2 µg/mL	4 µg/mL	>32 µg/mL	C[C@@](CCn1cc2cc(C#CC#CCC3(O)CC(CO)C3)ccc2n1)(C(=O)NO)S(C)(=O)=O (stereo partly drawn) [Example 66]
0.063 µg/mL (≈ 0.145 µM)	2 µg/mL (≈ 4.59 µM)	0.063 µg/mL (≈ 0.145 µM)	1 µg/mL (≈ 2.3 µM)	–	–	–	–	COc1ccc(-c2ccc3nn(CC[C@](C)(C(=O)NO)S(C)(=O)=O)cc3c2)c(F)c1 [Example 1, (R)-4-[5-(2-fluoro-4-methoxy-phenyl)-indazol-2-yl]-N-hydroxy-2-methylsulfonyl-2-methyl-butanamide]
